Source: patent US6261826A, “Antibiotic TKR2648 and process for producing the same” (Takara Shuzo Co., Ltd., priority 1996, dated 2001)
Values after ≈ are worked out from the molar mass of the structure shown. “Also recorded” adds a separate entry of the source.

Legend:
EL-4 lymphoma cells [1] = experiment: Cytotoxicity to EL-4 lymphoma cells, alamarblue-method; type: cell-based
Procedure: (§1) Effect of the above TKR2648 on tumor cells was examined by measuring inhibitory activity of the metastatic ability of tumor cells, which were inoculated into animals after incubation with TKR2648 for several hours. EL-4 lymphoma or B16 melanoma cells were cultured in RPMI 1640 medium containing 10% of fetal calf serum, and various concentrations of TKR2648 were added to the culture of tumor cells. After overnight culture, cytotoxicity of TKR2648 to the cells was determined by alamarblue-method (Biosource International), and the cells treated with TKR2648 were recovered and injected to C57BL/6 (female) mice via tail vein. Ten days after the injection of EL-4, the mice were sacrified and their livers were obtained and weighed to determine metastasizing tumor cells as increase of weight. Fourteen days after the injection of B16 cells, the mice were scarified and their lungs were obtained and counted metastasizing melanoma colonies. […] This means that TKR2648 may be useful as an anticancer agent by inhibiting metastasis properties of tumor cells without affecting of proliferative properties of tumor cells.

B16 melanoma cells [2] = experiment: Inhibition of metastasis of treated B16 cells injected into mice (lung colonies); type: in vivo, C57BL/6 (female) mice; details: for Inhibition of metastasis / Colony number of melanoma mean ± SD: fourteen days after injection; for Colony number of melanoma mean ± SD: lungs
Procedure: as §1

ICR mice = experiment: Toxicity, intraperitoneal administration to mice; type: in vivo; details: 50 mg/kg
Solubility = type: physicochemical
EL-4 lymphoma cells [3] = experiment: Inhibition of metastasis of treated EL-4 cells injected into mice (liver weight); type: in vivo, C57BL/6 (female) mice; details: for Inhibition of metastasis / Increase of liver weight mean ± SD: ten days after injection; for Increase of liver weight mean ± SD: * p<0.001
Procedure: as §1

Candida kefyr TIMM0301 = experiment: Minimal inhibitory concentration, liquid medium dilution method; type: cell-based
Procedure: (§2) The antifungal spectra of the above TKR2648 against various microorganisms were determined. Using the liquid medium dilution method, the concentration causing a substantially complete inhibition of fungal growth was determined as minimal inhibitory concentration (μg/ml). In the table, YNBG stands for a medium comprising 0.67% of yeast nitrogen base (manufactured by Difco) and 1.0% of glucose, and BHI stands for a medium comprising 0.5% of brain-heart infusion bouillon (manufactured by Nihon Pharmaceutical).

[4] = system: Candida albicans TIMM0136; experiment: as above; type: cell-based
Procedure: as §2

[5] = system: Cryptococcus neoformans TIMM0354; experiment: as above; type: cell-based
Procedure: as §2

[6] = system: Aspergillus fumigatus TIMM1776; experiment: as above; type: cell-based
Procedure: as §2

B16 melanoma cells [7] = experiment: Cytotoxicity to B16 melanoma cells, alamarblue-method; type: cell-based
Procedure: as §1

[8] = in words, at concentrations inhibiting metastasis
[9] = B16 cells treated at 0.156 μg/ml
[10] = B16 cells treated at 0.625 μg/ml
[11] = in words, at the concentrations showing little cytotoxicity
[12] = EL4 cells treated at 0.156 μg/ml
[13] = EL4 cells treated at 0.313 μg/ml
[14] = EL4 cells treated at 0.625 μg/ml

## CCCCC(=O)OC1CC(OC)=CC(=O)O1 (centres unmarked) [TKR2648]
EL-4 lymphoma cells [1]; Mus musculus, EL4, 0.156 μg/ml, overnight culture
  cytotoxicity at 0.156 µg/mL: 4.5%
EL-4 lymphoma cells [1]; Mus musculus, EL4, 0.313 μg/ml, overnight culture
  cytotoxicity at 0.313 µg/mL: 15.7%
EL-4 lymphoma cells [1]; Mus musculus, EL4, 0.625 μg/ml, overnight culture
  cytotoxicity at 0.625 µg/mL: 35.1%
EL-4 lymphoma cells [1]; [8]
  Cytotoxicity: little cytotoxicity
B16 melanoma cells [2]; [9]
  Inhibition of metastasis: 9.6%
  Colony number of melanoma mean ± SD: 58.3 ± 16.3
B16 melanoma cells [2]; [10]
  Inhibition of metastasis: 29.7%
  Colony number of melanoma mean ± SD: 45.3 ± 3.8
B16 melanoma cells [2]; B16 cells treated at 2.5 μg/ml
  Inhibition of metastasis: 96.4%
B16 melanoma cells [2]; B16 cells treated at 2.5 μg/ml, * p<0.001
  Colony number of melanoma mean ± SD: 2.3 ± 2.3
B16 melanoma cells [2]; [11]
  Metastasis of B16 tumor cells to normal tissues: inhibited metastasis
ICR mice
  Toxic signs: no toxic signs
Solubility; in chloroform
  Solubility: Soluble
Solubility; in hexane
  Solubility: practically insoluble; also recorded: sparingly soluble
Solubility; in methanol
  Solubility: Soluble
Solubility; in water
  Solubility: practically insoluble; also recorded: sparingly soluble
EL-4 lymphoma cells [3]; [12]
  Inhibition of metastasis: 47.4%
  Increase of liver weight mean ± SD: 0.630 ± 0.107 g
EL-4 lymphoma cells [3]; [13]
  Inhibition of metastasis: 67.4%
  Increase of liver weight mean ± SD: 0.391 ± 0.148 g
EL-4 lymphoma cells [3]; [14]
  Inhibition of metastasis: 89.3%
  Increase of liver weight mean ± SD: 0.128 ± 0.043 g
EL-4 lymphoma cells [3]; [11]
  Metastasis of EL-4 tumor cells to normal tissues: inhibited metastasis
Candida kefyr TIMM0301; Kluyveromyces marxianus, TIMM0301, YNBG medium
  MIC: 50 µg/mL (≈ 219 µM)
Candida kefyr TIMM0301; in words
  Antifungal activity: active
[4]; Candida albicans, TIMM0136, YNBG medium
  MIC: 100 µg/mL (≈ 438 µM)
[4]; in words
  Antifungal activity: active
[5]; Cryptococcus neoformans, TIMM0354, YNBG medium
  MIC: 3.13 µg/mL (≈ 13.7 µM)
[5]; in words
  Antifungal activity: active
[6]; Aspergillus fumigatus, TIMM1776, BHI medium
  MIC: 6.25 µg/mL (≈ 27.4 µM)
[6]; in words
  Antifungal activity: active
B16 melanoma cells [7]; Mus musculus, B16, 0.156 μg/ml, overnight culture
  cytotoxicity at 0.156 µg/mL: 4.5%
B16 melanoma cells [7]; Mus musculus, B16, 0.625 μg/ml, overnight culture
  cytotoxicity at 0.625 µg/mL: 14.1%
B16 melanoma cells [7]; Mus musculus, B16, 2.5 μg/ml, overnight culture
  cytotoxicity at 2.5 µg/mL: 51.3%
B16 melanoma cells [7]; [8]
  Cytotoxicity: little cytotoxicity
